Entries after “also recorded” stand apart in the source; their conditions may differ.
Tests used:
[1] = target: T1, RFL9 (rat A2b-adenosine receptor) (Rattus norvegicus, UniProt P29276); assay: ligand binding to COS-6M cells transiently transfected with RFL9; settings: for specific binding: [3H]NECA 20 nM, [3H]CCPA 2 nM, [3H]CGS-21680 20 nM
T1 sequence (P29276 1-332): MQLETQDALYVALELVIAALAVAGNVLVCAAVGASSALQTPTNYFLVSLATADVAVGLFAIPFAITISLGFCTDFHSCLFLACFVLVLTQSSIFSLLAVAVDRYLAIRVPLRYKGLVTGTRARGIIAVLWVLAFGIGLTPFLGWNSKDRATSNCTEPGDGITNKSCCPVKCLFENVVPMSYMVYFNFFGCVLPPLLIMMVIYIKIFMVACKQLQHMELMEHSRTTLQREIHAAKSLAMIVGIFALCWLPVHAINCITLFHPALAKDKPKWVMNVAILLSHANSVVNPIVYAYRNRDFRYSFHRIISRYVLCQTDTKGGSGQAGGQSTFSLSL

[2] = tested on: dog A2a-adenosine receptor; settings: cited from earlier work
[3] = target: T1, RFL9 (rat A2b-adenosine receptor); assay: cAMP response in COS-6M cells transfected with RFL9; assay type: cell-based
A2a-adenosine receptors = settings: cited from earlier work
[4] = target: T1, RFL9 (rat A2b-adenosine receptor); assay: cAMP in CHO cells stably transfected with RFL9; assay type: cell-based; settings: NECA 1 μM; four clones
Description: Eight clones were identified which expressed RFL9 mRNA.
Generation of Stable Cell Lines
RNA was extracted from cells following NP-40 lysis.
Cyclic AMP Studies on Stable Transfectants

[5] = target: T2, rat A1-adenosine receptor (Rattus norvegicus, UniProt P25099); assay: [3H]ligand binding to COS-6M cells transiently transfected with rat A1-adenosine receptor cDNA; settings: [3H]NECA 20 nM, [3H]CCPA 2 nM
T2 sequence (P25099 1-326): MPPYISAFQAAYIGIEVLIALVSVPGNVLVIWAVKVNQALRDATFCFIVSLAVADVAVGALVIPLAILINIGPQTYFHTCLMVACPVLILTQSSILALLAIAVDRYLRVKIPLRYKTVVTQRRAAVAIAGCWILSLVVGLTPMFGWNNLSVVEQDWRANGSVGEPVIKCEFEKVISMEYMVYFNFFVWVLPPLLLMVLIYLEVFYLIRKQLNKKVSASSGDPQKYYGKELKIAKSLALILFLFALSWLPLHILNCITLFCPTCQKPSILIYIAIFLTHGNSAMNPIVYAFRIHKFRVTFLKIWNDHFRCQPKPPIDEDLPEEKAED

[6] = target: rat A2a-adenosine receptor (Rattus norvegicus, UniProt P30543); settings: COS-6M cells; [3H]NECA 20 nM, [3H]CCPA 2 nM, [3H]CGS-21680 20 nM
[7] = target: T1, RFL9 (rat A2b-adenosine receptor); assay: [3H]NECA specific binding to RFL9-transformed CHO cells; settings: 100 nM; n=3
Description: All determinations were done in triplicate.

[8] = tested on: non-transformed CHO cells; settings: 100 nM
CHO cells = assay: cAMP accumulation in non-transformed CHO cells; assay type: cell-based, Chinese Hamster; settings: 1 mM; CHO cells not transformed; n=3

For `COc1ccc2[nH]c([125I])c(CCNC(C)=O)c2c1` [2[^125 1]melatonin], which “specific binding of 2[125I]melatonin” value [1] is on record?
Its value is “do not exhibit specific binding”.

For `CCNC(=O)[C@H]1O[C@@H](n2cnc3c(N)nc(NCCc4ccc(CCC(=O)O)cc4)nc32)[C@H](O)[C@@H]1O` [CGS-21680, 2-[p-(2-carboxyethyl)phenethylamino]5'-N-ethylcarbox-amidoadenosine], which “affinity for dog A2a-adenosine receptor” value [2] is on record?
Its value is “high affinity”.

With `CCNC(=O)[C@H]1O[C@@H](n2cnc3c(N)ncnc32)[C@H](O)[C@@H]1O` [NECA, 5'-N-ethylcarboxamidoadenosine] as the compound, how does the EC100 ([3]; 10 min, read-out: concentration of maximal stimulation of cAMP) read?
The EC100 was 10 µM.

And the “NECA-stimulated increase in cAMP levels” value ([3]; dose-response)?
Its value is “dose-dependent increase in cAMP levels”.

And the “affinity for A2a-adenosine receptors” value (A2a-adenosine receptors)?
The value was “high affinity”.

What about the stimulation of clones [4] of the same compound?
The stimulation of clones was “all were found to be stimulated by NECA addition”.

What about the specific binding [1] of the same compound?
Its specific binding is “bind the nonselective adenosine agonist NECA”.

With `OC[C@H]1O[C@@H](n2cnc3c(NC4CCCC4)nc(Cl)nc32)[C@H](O)[C@@H]1O` [[^3 H]CCPA, [^3 H]2-chloro-N-cyclopentyladenosine] as the compound, how does the specific binding [5] read?
Its specific binding is “specifically bound”.

And the specific binding [1]?
The specific binding was “did not bind; also recorded: do not bind either the A1 - or A2a -receptor-specific agonists with high affinity”.

And the specific binding [6]?
Its specific binding is “Only cells transfected with the A1 -adenosine receptor cDNA specifically bound”.

Which specific binding [5] does the source give for `CCNC(=O)[C@H]1O[C@@H](n2cnc3c(N)nc(NCCc4ccc(CCC(=O)O)cc4)nc32)[C@H](O)[C@@H]1O` [[^3 H]CGS-21680, [^3 H]2-[p-(2-carboxyethyl)phenethylamino]5'-N-ethylcarbox-amidoadenosine] here?
The specific binding was “Only cells transfected with the A2a -adenosine receptor cDNA specifically bound”.

For `CCNC(=O)[C@H]1O[C@@H](n2cnc3c(N)ncnc32)[C@H](O)[C@@H]1O` [[^3 H]NECA, [^3 H]5'-N-ethylcarboxamidoadenosine], which “[3H]NECA specific binding” value [7] is on record?
The value was 150 ± 20 fmol/mg.

What about the specific binding [1] of the same compound?
Its specific binding is “specifically bound”.

What does the source list for `CCNC(=O)[C@H]1O[C@@H](n2cnc3c(N)ncnc32)[C@H](O)[C@@H]1O` [[^3 H]NECA] [[^3 H]5'-N-ethylcarboxamidoadenosine]?
specific binding [5]: specifically bound; [3H]NECA specific binding [8]: 100 ± 23 fmol/mg

Which cAMP accumulation (CHO cells) does the source give for `Nc1ncnc2c1ncn2[C@@H]1O[C@H](CO)[C@@H](O)[C@H]1O` [adenosine] here?
The cAMP accumulation was “Neither NECA or adenosine (1 mM) induced cAMP accumulation”.

For `Cn1c(=O)c2[nH]cnc2n(C)c1=O` [aminophylline], which “inhibition of maximal NECA-stimulated increase in cAMP levels” value ([3]; antagonist 10^-2 M) is on record?
Its value is “completely blocked; also recorded: completely inhibited”.

From patent US5516894A, “A2b -adenosine receptors” (priority 1994, dated 1996)
